US20170172929A1, “PHARMACEUTICAL COMPOSITION CONTAINING PREGABALIN WITH IMPROVED STABILITY AND METHOD FOR PREPARING SAME” (Yungjin Pharm. Co., Ltd., priority 2014, published 2017)
Where two headings read alike, the source gives them in different places.

How the values were obtained:
[1] = cited from earlier work
[2] = severe conditions (60°C), airtight glass vial, excipient mixed 1:1
Procedure: 1 g of pregabalin and each 1 g of the excipients given in Table 14 were mixed at room temperature, and the mixture in the form of powder was air-tightened in a glass vial, and this vial was stored under severe conditions (60° C.) for 2 weeks, and then a percentage (%) of lactam related compounds (PRG-Lactam) relative to the main peak was calculated by HPLC. The analysis wavelength was 210 nm, a mixture (0.04 M ammonium phosphate ((NH4)2HPO4) buffer solution:acetonitrile:methanol=84:5:11) containing 5 mM sodium 1-octanesulfonate used as a mobile phase A, and acetonitrile was used as a mobile phase B. The mobile phase A was maintained at 100% for initial 6 minutes, and the m phase A was maintained from 100% to 70% and the mobile phase B was maintained from 0% to 30% for 6˜45 minutes, and then the mobile phase A was maintained at 70% and the mobile phase B was maintained at 0% for 45˜50 minutes. Post time was 10 minutes. A flow rate was adjusted (0.9 min/mL) so that a retention time of pregabalin was about 8 minutes. A column was a stainless steel column having an internal diameter of about 4.6 mm and a length of about 250 mm, packed with 5 μm-octadecylsilyl silica gel for liquid chromatography.

## CC(C)C[C@H](CN)CC(=O)O [Pregabalin, (S)-3-(aminomethyl)-5-methylhexanoic acid]
[1]; after administration
  Time to steady-state blood levels: 24˜48 hours
[1]; in vivo
  Average absorption time: 6 h
[1]; normal person
  Half-life: about 6 hours
[1]; oral immediate release
  Time to reach peak blood levels: ≤ 1.5 h
[2]; 0 weeks
  % of Peak area of PRG-Lactam relative to peak area of pregabalin: 0.074%
[2]; 1 week
  % of Peak area of PRG-Lactam relative to peak area of pregabalin: 0.196%
[2]; 2 weeks
  % of Peak area of PRG-Lactam relative to peak area of pregabalin: 0.329%
